Measurements from US9095565B2, “Methods for treating blood disorders” (Phoenicia Biosciences, Inc., priority 2006, dated 2015).

Assays:
γ globin promoter = experiment: β/γ-globin promoter driven reporter gene assay; type: cell-based; conditions: Table 2
γ-globin mRNA = γ-globin mRNA by RT-PCR in erythroid colonies cultured from cord blood; type: cell-based, human
Protocol: γ-globin mRNA was analyzed in control and treated erythroid colonies cultured from cord blood, by RT-PCR.

γ-globin gene reporter = experiment: Related study: relative luciferase reporter gene induction; type: cell-based
Protocol: (§1) In a related study, the relative luciferase reporter gene induction, γ-globin gene induction, and F cell production was tested for several of the candidate compounds. The relative in vitro γ-globin gene reporter stimulation for the tested compounds was as follows: compound P>M>W=R=Y. The relative in vitro γ-globin gene induction for the tested compounds was as follows: P>R=M>Y>W>. The relative in vitro F-cell production was as follows: W>Y>R>M>P. The relative potency for F-cell production was as follows: R>M>Y>P>W.

γ-globin gene = experiment: Related study: relative in vitro γ-globin gene induction; type: cell-based
Protocol: as §1

F-cell = experiment: Related study: in vitro F cell production; type: cell-based
Protocol: as §1

[1] = test system: cells expressing fetal globin (F-cells); experiment: Experiment 1: proportion of F-cells in hematopoietic colonies by FACScan; type: cell-based, human; conditions: same low concentrations as for fetal globin mRNA induction
Protocol: (§2) Erythroid burst-forming units (BFU-E) (erythroid progenitors) and colony-forming units granulocyte-macrophage (CFU-GM) (myeloid colonies) were cultured in semi-solid or in two-phase suspension media, with or without hematopoietic growth factors at high levels (e.g., erythropoietin at 3 U/ml) or reduced levels (BFU-E cell proliferation was evaluated by enumeration in colonies developing in the presence of reduced amounts of erythropoietin (0.5 U/ml) rather than 3 U (or 3000 mU)/ml, which is standard for these experimental systems), from cord blood or the peripheral blood of several types of humans. Experiments were carried out on samples derived from 1) β-thalassemia patients who expressed variable levels of fetal globin at baseline (and in untreated control cultures) and represent a variety of potential individual responses, 2) from normal umbilical cord blood samples, which express 40-50% fetal globin at baseline (and in untreated control cultures), 3) from CD34+ cells isolated from normal adult peripheral blood, which expressed low levels of fetal globin in untreated control cultures and at baseline; and 4) from peripheral blood of patients with sickle cell disease who were receiving treatment with hydroxyurea. These biological samples provide a range of potential difficulty in stimulating fetal globin expression in human patients.
Hematopoietic colonies were enumerated with or without (+/−) the test compounds, and compared to colonies which developed in the presence of hematopoietic growth factors alone from the same subject (untreated control colonies), and proportions of cells expressing fetal globin (F-cells) were analyzed by FACScan analysis.

[2] = test system: Erythroid colonies (BFU-E); experiment: Experiment 2: erythroid colonies (BFU-E) cultured from patients with beta thalassemia; type: cell-based, human; conditions: optimal panel of growth factors
Protocol: as §2
Erythroid colonies were cultured from patients with beta thalassemia, either without any test compounds (Control), only an optimal panel of hematopoietic growth factors, or with one of the test compounds M, P, T, 2-methyl-1-benzofuran-4-carboxylic acid, V, W, X, Y, AK, AC, or AI. […] Colony numbers were increased above the control cultures (% BFU-E/Control) by anywhere from 25% to 230%. Each of the listed test compounds was tested in at least 5 different patients' blood and the differences were statistically significant.

BFU-E = BFU-E cultured from cord blood; type: cell-based, human
Protocol: as §2
In a related study, BFU-E cultured from cord blood, was tested with or without compound M, P, R, T, W, Y, Z, AI, F, or 3-(5-chlorothien-3-yl)acrylic acid.

myeloid colonies = experiment: Experiment 3: myeloid colonies in cord blood cultured without added growth factors; type: cell-based, human; conditions: no added growth factors
Protocol: as §2
Control colonies were established in cultures with no added growth factors to support myelopoiesis, in Iscove's Modified Dulbecco's Media (IMDM) methylcellulose media with charcoal-absorbed fetal bovine serum, beta mercaptoethanol, BSA.

[3] = test system: mice transgenic for the micro-LCR-201 gamma-globin gene promoter; experiment: γ-globin induction and hematocrit in transgenic mice; type: in vivo, mouse; conditions: IP once/day, 5 days/week, 2 weeks
Protocol: Transgenic mice containing the human fetal globin gene and a micro-Locus Control Region (LCR) received no treatment (controls) or were treated with test compounds and γ-globin mRNA was analyzed by RT-PCR. Compound W was administered to mice transgenic for the micro-LCR-201 gamma-globin gene promoter, by IP injection once/day for 5 days/week for 2 weeks, and gamma-globin mRNA was assayed by qPCR. Hematocrit was analyzed once per week. A significant difference in expression of human fetal globin mRNA and in hematocrit between Control and compound W-treated mice was found in initial experiments as summarized in Table 4 below.

[4] = test system: erythroid (red blood cell) colonies; experiment: Experiment 5: growth of erythroid colonies from cord blood with standard growth factors (EPO and Il-3); type: cell-based, human
Protocol: In an additional study, comparative growth of erythroid (red blood cell) colonies cultured from cord blood samples was evaluated with the addition of growth factors alone or with the addition of test compounds.
Control and test cultures were established from the same samples with the same growth factors (EPO and II-3) with addition of test compounds. The compounds tested were M, P, R, T, W, Y, Z, AI, F and 3-(5-chlorothien-3-yl)acrylic acid. Two compounds previously shown as positive proliferative agents were included for comparison.

Erythroid colonies = experiment: Experiment 6: erythroid colony growth from sickle cell patients receiving hydroxyurea; type: cell-based, human
Protocol: Erythroid colonies from the peripheral blood of 4 patients with sickle cell disease who were receiving treatment with Hydroxyurea (HU), a chemotherapeutic agent which suppresses marrow growth and reduces red blood cell production, were cultured alone or with added test compounds M, P, 2-methyl-1-benzofuran-4-carboxylic acid, V, W, Y (racemic mixture) or AI. L-arginine was added as a neutral control, and had no effect on numbers of erythroid colonies.
2-methyl-1-benzofuran-4-carboxylic acid and compound V require additional samples for statistical evaluation, but had positive effects in 3/3 different patients' cultures. These findings indicate that the test compounds stimulate erythroid cell production particularly in conditions of anemia and bone marrow suppression.

γ-globin = conditions: cited from earlier work

Molecule | % γ globin promoter induction (above untreated control) (γ globin promoter) | Concentration required (γ-globin mRNA; increase in fetal globin mRNA, erythroid colonies from cord blood) [µM] | No. of Positive responses (γ-globin mRNA; positive cultures/cultures tested) | relative in vitro γ-globin gene reporter stimulation (rank order) (γ-globin gene reporter) | relative in vitro γ-globin gene induction (rank order) (γ-globin gene) | relative in vitro F-cell production (rank order) (F-cell) | relative potency for F-cell production (rank order) (F-cell) | proportion of F-cells above the percentage in untreated controls [1] | number of erythroid colonies compared to matched control cultures [2] | numbers of BFU-E colonies compared to controls (BFU-E) | production of myeloid colonies compared to untreated control (myeloid colonies) | Hematocrit ([3]; untreated 51 +/− 0.45) | γ-globin mRNA/S16 (mean relative units) ([3]; untreated 1508) | erythroid colony numbers [4] | effect on numbers of erythroid colonies compared to control (Erythroid colonies) | % Change from Control (erythroid colony growth) (Erythroid colonies; micromolar: L-arginine 150, AB 100, PA 100, M 1, P 100, 2-methyl-1-benzofuran-4-carboxylic acid 10, V 10, W 40, Y racemic mix 50, Al 30, Hydroxyurea 20) [%] | Number with effects/No effect (Erythroid colonies; patients' cultures, same concentrations as % Change) | levels required in vitro (γ-globin) [µM]
O=C(O)c1cccc(Cn2cc([N+](=O)[O-])cn2)c1 [Compound W] | ** (‘**’ indicates a 100%-200% increase) | 40 | 5/6 | P>M>W=R=Y | P>R=M>Y>W | W>Y>R>M>P | R>M>Y>P>W | significant increases | increased the number of colonies | increased numbers of colonies | stimulated production of myeloid colonies | 57 +/− 3 | 3418 |  |  |  |  | 
arginine butyrate |  |  |  |  |  |  |  |  |  |  |  |  |  | reduced colony numbers | decreased numbers of erythroid colonies | −29 | 5/6 | 100
